Data: patent publication US10294236B2, “Compounds as rearranged during transfection (RET) inhibitors” (GLAXOSMITHKLINE INTELLECTUAL PROPERTY DEVELOPMENT LIMITED, priority 2014, dated 2019)

molecular target: T1, Human RET kinase cytoplasmic domain (Homo sapiens, UniProt P07949); test: RET kinase enzymatic assay; assay type: biochemical
T1 construct: made in house
T1 sequence (P07949 658-1114): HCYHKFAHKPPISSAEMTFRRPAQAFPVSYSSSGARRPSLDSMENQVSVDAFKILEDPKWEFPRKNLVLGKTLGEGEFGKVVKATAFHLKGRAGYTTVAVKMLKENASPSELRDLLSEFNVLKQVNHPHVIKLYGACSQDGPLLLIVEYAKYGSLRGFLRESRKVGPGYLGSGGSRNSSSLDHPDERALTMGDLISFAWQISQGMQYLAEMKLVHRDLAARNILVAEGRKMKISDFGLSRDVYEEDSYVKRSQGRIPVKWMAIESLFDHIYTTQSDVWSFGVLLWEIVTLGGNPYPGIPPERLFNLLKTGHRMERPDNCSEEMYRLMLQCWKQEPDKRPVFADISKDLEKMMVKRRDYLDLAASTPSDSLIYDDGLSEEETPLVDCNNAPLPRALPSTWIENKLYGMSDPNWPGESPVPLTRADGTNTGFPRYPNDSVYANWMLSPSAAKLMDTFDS
Outline: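 GST-RET, 0.2 nM in 2× enzyme mix (HEPES, CHAPS, BSA, DTT), preincubated with inhibitor 30 min at 23 °C. Reaction for 1 h at 23 °C after adding 2× substrate mix: 20 μM ATP, 20 mM MgCl2, 1 μM biotinylated peptide. Single wells per concentration; IC50 from sigmoidal dose-response fit.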

IC50, < 100 nM:
CCOc1cc(=O)[nH]cc1-c1ccc(NC(=O)Nc2cc(C(F)(F)F)ccc2F)c(F)c1 [Example 128]
CCOc1cc(-c2ccc(NC(=O)Nc3ccc(C(C)(C)O)c(C(F)(F)F)c3)c(F)c2)c[nH]c1=O [Example 129]
CCOc1cc(-c2ccc(NC(=O)Nc3ccc(OC4(C)COC4)c(C(F)(F)F)c3)c(F)c2)c[nH]c1=O [Example 130]
CCCOc1cc(-c2ccc(NC(=O)Nc3ccc(OC4(C)COC4)c(C(F)(F)F)c3)cc2)c[nH]c1=O [Example 131]
CCOc1cc(-c2ccc(NC(=O)Nc3ccc(CO)c(C(F)(F)F)c3)c(F)c2)c[nH]c1=O [Example 132]
CCOc1cc(-c2ccc(NC(=O)Nc3ccc(OC4(C)COC4)c(C(F)(F)F)c3)cc2F)c[nH]c1=O [Example 133]
CCOc1cc(-c2ccc(NC(=O)Nc3ccc(OC4(CO)CCC4)c(C(F)(F)F)c3)c(F)c2)c[nH]c1=O [Example 134]
CCOc1cc(-c2ccc(NC(=O)Nc3ccc(C(C)(C)C#N)c(C(F)(F)F)c3)c(F)c2)c[nH]c1=O [Example 135]
CC(C)Oc1cc(-c2ccc(NC(=O)Nc3ccc(OC4(C)COC4)c(C(F)(F)F)c3)c(F)c2)c[nH]c1=O [Example 136]
Cc1cc(-c2ccc(=O)[nH]c2)ccc1NC(=O)Nc1ccc(OC2(C)COC2)c(C(F)(F)F)c1 [Example 137]
CCCOc1cc(-c2ccc(NC(=O)Nc3ccc(OC4(C)COC4)c(C(F)(F)F)c3)c(F)c2)c[nH]c1=O [Example 138]
CCOc1cc(-c2ccc(NC(=O)Nc3ccc(OC(C)(C)CF)c(C(F)(F)F)c3)c(F)c2)c[nH]c1=O [Example 139]
CCOc1cc(-c2ccc(NC(=O)Nc3ccc(OC4(C)COC4)c(C(F)(F)F)c3)cc2)c[nH]c1=O [Example 140]
CCOc1cc(-c2ccc(NC(=O)Nc3cc(C(F)(F)F)ccc3O)c(F)c2)c[nH]c1=O [Example 141]
CCOc1cc(-c2ccc(NC(=O)Nc3ccc(OCCO)c(C(F)(F)F)c3)c(F)c2)c[nH]c1=O [Example 143]
CCOc1cc(-c2ccc(NC(=O)Nc3ccc(OC4(C)CCN(C)C4)c(C(F)(F)F)c3)c(F)c2)c[nH]c1=O (stereo not shown) [Example 144]
CCOc1cc(-c2ccc(NC(=O)Nc3ccc(OCC(C)O)c(C(F)(F)F)c3)c(F)c2)c[nH]c1=O (stereo not shown) [Example 145]
CCOc1cc(-c2ccc(NC(=O)Nc3ccc(Cc4cnn(C)c4)c(C(F)(F)F)c3)c(F)c2)c[nH]c1=O [Example 146]
CC1(Oc2ccc(NC(=O)Nc3ccc(-c4ccc(=O)[nH]c4)cc3F)cc2C(F)(F)F)COC1 [Example 147]
CCOc1cc(-c2ccc(NC(=O)Nc3cnc(OC4(C)COC4)c(C(F)(F)F)c3)c(F)c2)c[nH]c1=O [Example 148]
CCOc1cc(-c2ccc(NC(=O)Nc3ccc(OC4(C)CCC4)c(C(F)(F)F)c3)c(F)c2)c[nH]c1=O [Example 149]
CCOc1cc(-c2ccc(NC(=O)Nc3ccc(OC4(C)CS(=O)(=O)C4)c(C(F)(F)F)c3)c(F)c2)c[nH]c1=O [Example 150]
CCOCc1ccc(NC(=O)Nc2ccc(-c3c[nH]c(=O)c(OCC)c3)cc2F)cc1C(F)(F)F [Example 151]
CCOc1cc(-c2ccc(NC(=O)Nc3ccc(Cl)c(C(F)(F)F)c3)c(F)c2)c[nH]c1=O [Example 152]
CCOc1cc(F)c(C(F)(F)F)cc1NC(=O)Nc1ccc(-c2c[nH]c(=O)c(OCC)c2)cc1F [Example 153]
CCOc1cc(-c2ccc(NC(=O)Nc3ccc(CN4CC[C@H](F)C4)c(C(F)(F)F)c3)c(F)c2)c[nH]c1=O [Example 154]
O=C(Nc1ccc(-c2c[nH]c(=O)c3occc23)cc1F)Nc1cc(C(F)(F)F)ccc1F [Example 155]
CCOc1cc(-c2ccc(NC(=O)Nc3ccc(F)c(C(F)(F)F)c3)c(F)c2)c[nH]c1=O [Example 156]
CC1(Oc2ccc(NC(=O)Nc3ccc(-c4ccc(=O)[nH]c4)cc3)cc2C(F)(F)F)COC1 [Example 157]
CCOc1cc(-c2ccc(NC(=O)Nc3ccc(C#N)c(C(F)(F)F)c3)c(F)c2)c[nH]c1=O [Example 158]
CCOc1cc(-c2ccc(NC(=O)Nc3ccc(OC(C)(C)COC)c(C(F)(F)F)c3)c(F)c2)c[nH]c1=O [Example 159]
CCOc1cc(-c2ccc(NC(=O)Nc3ccc(OC(C)C)c(C(F)F)c3)cc2F)c[nH]c1=O [Example 160]
CCOc1cc(-c2ccc(NC(=O)Nc3ccc(OC4CC(F)(F)C4)c(C(F)(F)F)c3)c(F)c2)c[nH]c1=O [Example 161]
CCOc1cc(-c2ccc(NC(=O)Nc3ccc(C(N)=O)c(C(F)(F)F)c3)c(F)c2)c[nH]c1=O [Example 162]
CC(C)Oc1ccc(NC(=O)Nc2ccc(-c3ccc(=O)[nH]c3)cc2)cc1C(F)(F)F [Example 163]
O=C(Nc1ccc(OCCO)c(C(F)(F)F)c1)Nc1ccc(-c2c[nH]c(=O)c(OC(F)F)c2)cc1F [Example 164]
CCOc1cc(-c2ccc(NC(=O)Nc3ccc(CCN(C)C)c(C(F)(F)F)c3)c(F)c2)c[nH]c1=O [Example 165]
CCOc1cc(-c2ccc(NC(=O)Nc3ccc(OC4(C)COC4)c(C(F)(F)F)c3F)c(F)c2)c[nH]c1=O [Example 166]
CCOc1cc(-c2ccc(NC(=O)Nc3ccc(OC4(C)CCOC4)c(C(F)(F)F)c3)c(F)c2)c[nH]c1=O (stereo not shown) [Example 167]
Cc1cc(=O)[nH]cc1-c1ccc(NC(=O)Nc2ccc(OC3(C)COC3)c(C(F)(F)F)c2)c(F)c1 [Example 168]
CC1(Oc2ccc(NC(=O)Nc3ccc(-c4ccc(=O)[nH]c4)cc3)cc2C(F)F)COC1 [Example 169]
CCOc1cc(-c2ccc(NC(=O)Nc3ccc(Cl)c(Cl)c3)c(F)c2)c[nH]c1=O [Example 170]
CCOc1cc(-c2ncc(NC(=O)Nc3cc(C(F)(F)F)c(CN4CCN(CCO)CC4)cc3F)c(C)n2)c[nH]c1=O [Example 171, 1-(2-(5-Ethoxy-6-oxo-1,6-dihydropyridin-3-yl)-4-methylpyrimidin-5-yl)-3-(2-fluoro-4-((4-(2-hydroxyethyl)piperazin-1-yl)methyl)-5-(trifluoromethyl)phenyl)urea]
CCN1CCN(Cc2cc(F)c(NC(=O)Nc3cnc(-c4c[nH]c(=O)c(OCCO)c4)nc3C)cc2C(F)(F)F)CC1 [Example 172, 1-(4-((4-Ethylpiperazin-1-yl)methyl)-2-fluoro-5-(trifluoromethyl)phenyl)-3-(2-(5-(2-hydroxyethoxy)-6-oxo-1,6-dihydropyridin-3-yl)-4-methylpyrimidin-5-yl)urea]
Cc1nc(-c2c[nH]c(=O)c(OCCO)c2)ncc1NC(=O)Nc1cc(C(F)(F)F)c(CN2CCN(CCO)CC2)cc1F [Example 173, 1-(2-Fluoro-4-((4-(2-hydroxyethyl)piperazin-1-yl)methyl)-5-(trifluoromethyl)phenyl)-3-(2-(5-(2-hydroxyethoxy)-6-oxo-1,6-dihydropyridin-3-yl)-4-methylpyrimidin-5-yl)urea]
CCOc1cc(-c2ncc(NC(=O)Nc3cc(C(F)(F)F)cc(S(=O)(=O)NCCN(C)C)c3)c(C)n2)c[nH]c1=O [Example 174, N-(2-(dimethylamino)ethyl)-3-(3-(2-(5-ethoxy-6-oxo-1,6-dihydropyridin-3-yl)-4-methylpyrimidin-5-yl)ureido)-5-(trifluoromethyl)benzenesulfonamide]
CCOc1cc(-c2ncc(NC(=O)Nc3ccc(C(C)N)c(C(F)(F)F)c3)c(C)n2)c[nH]c1=O (stereo not shown) [Example 175, 1-(4-(1-Aminoethyl)-3-(trifluoromethyl)phenyl)-3-(2-(5-ethoxy-6-oxo-1,6-dihydropyridin-3-yl)-4-methylpyrimidin-5-yl)urea]
CCOc1cc(-c2ncc(NC(=O)Nc3ccc(C(C)N(C)C)c(C(F)(F)F)c3)c(C)n2)c[nH]c1=O (stereo not shown) [Example 176, 1-(4-(1-(Dimethylamino)ethyl)-3-(trifluoromethyl)phenyl)-3-(2-(5-ethoxy-6-oxo-1,6-dihydropyridin-3-yl)-4-methylpyrimidin-5-yl)urea]
CCOc1cc(-c2ncc(NC(=O)Nc3ccc(CCN4CCCC4)c(C(F)(F)F)c3)c(C)n2)c[nH]c1=O [Example 177, 1-(2-(5-Ethoxy-6-oxo-1,6-dihydropyridin-3-yl)-4-methylpyrimidin-5-yl)-3-(4-(2-(pyrrolidin-1-yl)ethyl)-3-(trifluoromethyl)phenyl)urea]
